Our source for the TGI values is PubChem BioAssay (NCI).

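Compound exposure: 48 hours, 5 concentrations, 96-well plates. TGI: concentration producing complete growth inhibition.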

Among the test systems are UO-31 renal; SF-268 CNS; UACC-257 melanoma; DU-145 prostate; COLO 205 colon; RXF 393 renal; MOLT-4 leukemia; CAKI-1 renal; SK-MEL-28 melanoma; 786-0 renal; NCI-H226 lung; MDA-N; MALME-3M melanoma; U251 CNS; IGROV1 ovarian; CCRF-CEM leukemia; PC-3 prostate; BT-549 breast; TK-10 renal; KM12 colon.
Assay in all cases: growth of human tumour cells (NCI), 48 h

For `CC(C)(Br)C(Br)CCC1(C2CO2)CO1` (stereo unspecified), the TGI with UO-31 renal, in the test with SF-268 CNS, in the test with UACC-257 melanoma, with DU-145 prostate, in the test with COLO 205 colon and in the test with RXF 393 renal was more than 5 µM each time. The TGI in the test on MOLT-4 leukemia, with CAKI-1 renal, with SK-MEL-28 melanoma, in the test with 786-0 renal, with NCI-H226 lung and in the test on MDA-N was more than 5 µM throughout. Besides, the TGI in the test with MALME-3M melanoma, in the test with U251 CNS, with IGROV1 ovarian, with CCRF-CEM leukemia, with PC-3 prostate and with BT-549 breast was more than 5 µM in each case.

In the case of `COc1ccc(N2C(=O)CC(C3CC(C(C)(C)C)CCC3=O)C2=O)cc1` (stereo unspecified), the TGI in the test on UO-31 renal, in the test on SF-268 CNS, in the test on UACC-257 melanoma, in the test with DU-145 prostate, in the test with COLO 205 colon and with RXF 393 renal was more than 100 µM each time. Also, the TGI with MOLT-4 leukemia, with CAKI-1 renal, with SK-MEL-28 melanoma, with 786-0 renal, in the test on NCI-H226 lung and in the test on TK-10 renal was more than 100 µM in each case. Moreover, the TGI in the test on KM12 colon, in the test with MDA-N, in the test on U251 CNS, in the test on IGROV1 ovarian, in the test with CCRF-CEM leukemia and in the test on PC-3 prostate was more than 100 µM throughout. The compound further displayed a TGI with BT-549 breast of more than 100 µM.

As to `CCCC[C@@H]1CCN2C[C@@H](O)[C@@H](O)[C@@H]2[C@H]1O`, the TGI in the test on UO-31 renal, in the test on SF-268 CNS, with UACC-257 melanoma, in the test with DU-145 prostate, with COLO 205 colon and with RXF 393 renal was more than 100 µM in each case. For the same compound, the TGI with MOLT-4 leukemia, in the test on CAKI-1 renal, in the test on SK-MEL-28 melanoma, with 786-0 renal, in the test on NCI-H226 lung and with KM12 colon was more than 100 µM in each case. Also, the TGI in the test with MDA-N, in the test with MALME-3M melanoma, with U251 CNS, in the test with IGROV1 ovarian, in the test on CCRF-CEM leukemia and with PC-3 prostate was more than 100 µM each time. Besides, the TGI in the test with BT-549 breast was more than 100 µM.

For `Cc1cc(C)n(C(=C(C(Cl)=C(Cl)Cl)[N+](=O)[O-])n2nc(C)cc2C)n1`, the TGI stood at 11.3 µM with UO-31 renal; 16.7 µM with SF-268 CNS; 11.5 µM with UACC-257 melanoma; 14.9 µM with DU-145 prostate; 3.76 µM with COLO 205 colon; 16 µM in the test with RXF 393 renal. Also, the TGI in the test on MOLT-4 leukemia is 5 µM; with CAKI-1 renal, 8.38 µM; with SK-MEL-28 melanoma it was 19.7 µM; in the test with NCI-H226 lung, 26 µM; with TK-10 renal, 9.36 µM; in the test with KM12 colon it was 13.9 µM. The TGI in the test on MDA-N came to 13.8 µM; in the test on MALME-3M melanoma, 7.86 µM; in the test with U251 CNS, 11.7 µM; in the test with IGROV1 ovarian, 14.9 µM; in the test on CCRF-CEM leukemia, 5.8 µM; with PC-3 prostate it was 13.6 µM. In the test on BT-549 breast, this compound registered a TGI of 16.3 µM.

As for `CC(=O)Nc1ccc(N2C(=O)/C(=C\c3cccc(Oc4ccccc4)c3)S(=O)(=O)C2c2ccccc2)cc1` (stereo unspecified), the TGI in the test with UO-31 renal is more than 100 µM; with UACC-257 melanoma, more than 100 µM; in the test on DU-145 prostate it was more than 100 µM; with COLO 205 colon it was more than 100 µM; in the test on RXF 393 renal, more than 100 µM; in the test on MOLT-4 leukemia it was 98.4 µM. For the same compound, the TGI in the test on CAKI-1 renal, in the test on SK-MEL-28 melanoma, in the test on 786-0 renal, with NCI-H226 lung, with TK-10 renal and in the test on KM12 colon was more than 100 µM each time. The TGI was 95.3 µM with MDA-N; more than 100 µM in the test with MALME-3M melanoma; more than 100 µM in the test with U251 CNS; more than 100 µM in the test with IGROV1 ovarian; more than 100 µM in the test with CCRF-CEM leukemia; more than 100 µM with PC-3 prostate. This compound also showed a TGI in the test on BT-549 breast of more than 100 µM.

With `O=c1cnn(C/C=C/CBr)c(=O)[nH]1`, the TGI amounted to 28.8 µM with UO-31 renal; 39.3 µM in the test with SF-268 CNS; 26.9 µM in the test with UACC-257 melanoma; 43.8 µM in the test with DU-145 prostate; 41.9 µM with COLO 205 colon; 31.9 µM in the test on RXF 393 renal. For the same compound, the TGI is 50.1 µM in the test with MOLT-4 leukemia; 25.6 µM with CAKI-1 renal; 41.9 µM in the test with SK-MEL-28 melanoma; 34.8 µM in the test with NCI-H226 lung; 32.7 µM with KM12 colon; 33.3 µM with MDA-N. The TGI in the test with MALME-3M melanoma came to 32 µM; in the test on U251 CNS, 28.8 µM; in the test with IGROV1 ovarian, 37.7 µM; with CCRF-CEM leukemia, 47.6 µM; in the test on PC-3 prostate, 36.4 µM; in the test with BT-549 breast, 19.4 µM.

With `Nc1ccc(Oc2ccc(C34CC5CC6C3CC3CC4C(C5)C6(c4ccc(Oc5ccc(N)cc5)cc4)C3)cc2)cc1`, the TGI in the test on UO-31 renal is more than 100 µM; in the test with SF-268 CNS it was more than 72 µM; in the test with UACC-257 melanoma, more than 32.5 µM; with DU-145 prostate, more than 100 µM; in the test with RXF 393 renal it was 47.8 µM; in the test on MOLT-4 leukemia, 28.3 µM. For the same compound, the TGI is 48 µM with CAKI-1 renal; more than 81.2 µM in the test with SK-MEL-28 melanoma; 45.2 µM with 786-0 renal; 71.4 µM with NCI-H226 lung; more than 68.6 µM in the test with TK-10 renal; more than 100 µM in the test on KM12 colon. Also, the TGI is 19.1 µM with MDA-N; 2.81 µM with MALME-3M melanoma; 14.9 µM in the test on U251 CNS; more than 78.8 µM with IGROV1 ovarian; more than 63.6 µM with CCRF-CEM leukemia; 51.7 µM in the test on PC-3 prostate. In the test on BT-549 breast, this compound displayed a TGI of more than 82.8 µM.
